The target in test [1] is Protein kinase C alpha type (Homo sapiens, UniProt P17252). The test is described as follows: Displacement of [3H]PDBu form PKCalpha. (In general: Displacement assays read how much labelled ligand stays bound in the presence of the test substance.)
A further test relates to P388. The test is described as follows: Cytotoxicity against mouse P388 cells. The test is classed as functional. Particulars: read-out: ED50 (the source's name).
Another test concerns OVCAR-3. The test can be described thus: Growth inhibition of human OVCAR-3 cells by NCI-method. The class given is functional.
For another test, the system named is KM-20L2. The test can be described thus: Growth inhibition of human KM20L2 cells by NCI-method. The class given is functional.
For the next test, the system named is SF-295. The test can be described thus: Growth inhibition of human SF295 cells by NCI-method. The class given is functional.
The subject of the next test is NCI-H460. The test can be described thus: Growth inhibition of human NCI-H460 cells by NCI-method. The class given is functional.
The next test has as its system A498. The test is described as follows: Growth inhibition of human A498 cells by NCI-method. The test is classed as functional.
For another test, the system named is SK-MEL-5. The test can be described thus: Growth inhibition of human SK-MEL-5 cells by NCI-method. The test is classed as functional.

Converted amounts (≈) assume the structure as drawn.

A word on the Ki: it is the equilibrium dissociation constant of an inhibitor or competing ligand from its target. Read a low Ki as tighter binding. The compound `COC(=O)/C=C1/C[C@H]2C[C@]3(O)O[C@H](C[C@@H](O)CC(=O)O[C@@H]([C@@H](C)O)C[C@@H]4C/C(=C\C(=O)OC)C[C@@](O)(O4)C(C)(C)/C=C/[C@@H](C1)O2)C[C@H](OC(=O)C(C)(C)C)C3(C)C` [BRYOSTATIN 10] gave a Ki in test [1] of 1.56 nM.

As usually defined, the GI50 is the concentration that inhibits growth by half. On to `COC(=O)/C=C1/C[C@H]2C[C@]3(O)O[C@H](C[C@@H](O)CC(=O)O[C@@H]([C@@H](C)O)C[C@@H]4C/C(=C\C(=O)OC)C=C(O4)C(C)(C)/C=C/[C@@H](C1)O2)C[C@H](OC(=O)C(C)(C)C)C3(C)C` [BRYOSTATIN 16], for which the EC50 in the test with P388 was 0.0093 µg/mL (≈ 0.0118 µM). In addition, the GI50 in the test with OVCAR-3 stood at 1.9 µg/mL (≈ 2.4 µM); in the test with KM-20L2, 2.2 µg/mL (≈ 2.78 µM); in the test on SF-295, 1.4 µg/mL (≈ 1.77 µM); in the test with NCI-H460, 0.019 µg/mL (≈ 0.024 µM); in the test on A498, 1.9 µg/mL (≈ 2.4 µM); with SK-MEL-5 it was 1.2 µg/mL (≈ 1.52 µM). Moreover, in test [1], affinity was put at a Ki of 118 nM.

In the case of `COC(=O)/C=C1\C=C2O[C@@H](C1)C[C@H]([C@@H](C)O)OC(=O)C[C@H](O)C[C@@H]1C[C@H](OC(=O)C(C)(C)C)C(C)(C)[C@](O)(C[C@@H]3C/C(=C/C(=O)OC)C[C@H](/C=C/C2(C)C)O3)O1` [BRYOSTATIN 17], the EC50 in the test with P388 worked out at 0.019 µg/mL (≈ 0.024 µM). Further, the GI50 in the test on OVCAR-3, in the test with KM-20L2, in the test on SF-295, in the test with NCI-H460, in the test on A498 and with SK-MEL-5 was 0.16 µg/mL (≈ 0.202 µM) in each case. This compound displayed a Ki in test [1] of 188 nM.

As for `COC(=O)/C=C1/C[C@H]2C[C@]3(O)O[C@H](C[C@@H](O)CC(=O)O[C@@H]([C@@H](C)O)C[C@@H]4C/C(=C/C(=O)OC)C[C@@](O)(O4)C(C)(C)/C=C/[C@@H](C1)O2)C[C@H](OC(=O)C(C)(C)C)C3(C)C` [BRYOSTATIN 18], in the test with P388, the EC50 came out at 0.0033 µg/mL (≈ 0.00408 µM). Moreover, the GI50 with OVCAR-3, in the test on KM-20L2, in the test with SF-295, with NCI-H460, in the test with A498 and with SK-MEL-5 was 0.42 µg/mL (≈ 0.519 µM) in each case. This compound also had an inhibition constant Ki in test [1] of 4.82 nM.

For the origin of these results see ChEMBL document CHEMBL1158205, “Antineoplastic agents. 340. Isolation and structural elucidation of bryostatins 16-18” (J Nat Prod, 1996).
